Measured values: ChEMBL document CHEMBL1141239, “New series of potent delta-opioid antagonists containing the H-Dmt-Tic-NH-hexyl-NH-R motif” (Bioorg Med Chem Lett, 2005)
Square brackets hold non-standard residues; d marks the D form. Peptide text beside a SMILES is read from it. Dmt = Cc1cc(O)cc(C)c1C[C@H](N)C(=O)O; Tic = O=C(O)[C@@H]1Cc2ccccc2CN1

Key:
[1] = biological target: T1, Delta-type opioid receptor (Mus musculus, UniProt P32300); assay: Displacement of deltorphin-II from delta opioid receptor in mouse vas deferens; type: functional; conditions: read-out: pA2 (converted)
T1 sequence (P32300 whole entry): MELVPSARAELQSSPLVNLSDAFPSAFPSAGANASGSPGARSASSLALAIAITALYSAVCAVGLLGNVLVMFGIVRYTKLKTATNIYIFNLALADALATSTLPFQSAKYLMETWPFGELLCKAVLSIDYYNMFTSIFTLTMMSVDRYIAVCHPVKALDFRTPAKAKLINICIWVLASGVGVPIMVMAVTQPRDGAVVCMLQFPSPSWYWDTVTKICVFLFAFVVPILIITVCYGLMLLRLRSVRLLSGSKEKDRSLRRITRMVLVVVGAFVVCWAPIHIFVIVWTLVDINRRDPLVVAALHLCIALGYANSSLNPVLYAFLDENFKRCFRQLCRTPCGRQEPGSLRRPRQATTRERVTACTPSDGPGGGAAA

[2] = biological target: Delta-type opioid receptor (Rattus norvegicus, UniProt P33533); assay: Displacement of [3H]deltorphin II from delta opioid receptor in rat brain membrane; type: cell membranes
Sequence of Delta-type opioid receptor (Rattus norvegicus, UniProt P33533) (P33533 whole entry): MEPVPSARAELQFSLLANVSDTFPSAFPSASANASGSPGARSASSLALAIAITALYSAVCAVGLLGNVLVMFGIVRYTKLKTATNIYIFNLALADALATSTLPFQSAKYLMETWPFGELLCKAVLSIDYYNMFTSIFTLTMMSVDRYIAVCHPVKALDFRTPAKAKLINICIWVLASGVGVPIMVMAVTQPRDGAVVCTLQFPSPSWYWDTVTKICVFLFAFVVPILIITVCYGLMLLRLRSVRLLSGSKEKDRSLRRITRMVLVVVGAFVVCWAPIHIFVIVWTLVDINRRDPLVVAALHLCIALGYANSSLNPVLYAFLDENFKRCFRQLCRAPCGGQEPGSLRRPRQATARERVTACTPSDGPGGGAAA

Mu-type opioid receptor [3] = biological target: Mu-type opioid receptor (Rattus norvegicus, UniProt P33535); assay: Displacement of [3H]DAMGO from mu opioid receptor in rat brain membrane; type: cell membranes
Sequence of Mu-type opioid receptor (Rattus norvegicus, UniProt P33535) (P33535 whole entry): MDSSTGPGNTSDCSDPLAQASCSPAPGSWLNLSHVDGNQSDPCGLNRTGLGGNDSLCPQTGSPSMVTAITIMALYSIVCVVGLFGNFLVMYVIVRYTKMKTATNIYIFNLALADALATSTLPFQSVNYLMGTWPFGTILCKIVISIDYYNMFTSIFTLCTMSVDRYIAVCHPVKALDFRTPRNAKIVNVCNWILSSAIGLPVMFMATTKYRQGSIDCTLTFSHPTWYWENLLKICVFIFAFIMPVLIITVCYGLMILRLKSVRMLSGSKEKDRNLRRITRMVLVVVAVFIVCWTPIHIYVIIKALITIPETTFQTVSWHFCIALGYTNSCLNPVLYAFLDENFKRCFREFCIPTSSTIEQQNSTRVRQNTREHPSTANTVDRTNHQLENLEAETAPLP

[4] = biological target: Opioid receptors; mu & delta (Rattus norvegicus) (UniProt P33533+P33535); assay: Selectivity ratio of rat delta opioid receptor over rat mu opioid receptor; type: protein assay
Sequence of Opioid receptors; mu & delta (Rattus norvegicus) (P33533 whole entry, looked up): as the sequence (P33533 whole entry) above
Sequence of Opioid receptors; mu & delta (Rattus norvegicus) (P33535 whole entry, looked up): as the sequence (P33535 whole entry) above

[5] = biological target: T1, Delta-type opioid receptor; assay: Agonistic activity at delta opioid receptor in mouse vas deferens; type: functional, tissue-based
Mu-type opioid receptor [6] = biological target: Mu-type opioid receptor (Cavia porcellus, UniProt P97266); assay: Agonistic activity against mu opioid receptor in guinea-pig ileum; type: functional, tissue-based
Sequence of Mu-type opioid receptor (Cavia porcellus, UniProt P97266) (P97266 whole entry): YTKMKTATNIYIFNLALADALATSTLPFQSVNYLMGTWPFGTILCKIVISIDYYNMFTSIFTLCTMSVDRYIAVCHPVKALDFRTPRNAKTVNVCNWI

SMILES | Kb [1] | Ki [2] | Ki (Mu-type opioid receptor [3]) | Ratio Ki [4] | IC50 [5] | IC50 (Mu-type opioid receptor [6])
Cc1cc(O)cc(C)c1C[C@H](N)C(=O)N1Cc2ccccc2C[C@H]1C(=O)O (H-[Dmt]-[Tic]-OH) | 3.16 nM |  |  |  |  | 
Cc1cc(O)cc(C)c1C[C@H](N)C(=O)NCCCCCCNC(=O)C1Cc2ccccc2CN1C(=O)[C@@H](N)Cc1c(C)cc(O)cc1C (some centres undefined) | 0.0631 nM | 0.23 nM | 0.38 nM | 2 | > 10 µM | 5.9 µM
Cc1cc(O)cc(C)c1C[C@H](N)C(=O)N1Cc2ccccc2CC1C(=O)NCCCCCCNC(=O)[C@@H](N)Cc1ccccc1 (some centres undefined) | 0.0501 nM | 0.89 nM | 1.91 nM | 2 | > 10 µM | 5.55 µM
Cc1cc(O)cc(C)c1C[C@H](N)C(=O)N1Cc2ccccc2CC1C(=O)NCCCCCCNC(=O)C1Cc2ccccc2CN1 (some centres undefined) | 0.0398 nM | 0.13 nM | 2.81 nM | 22 | > 10 µM | 1.6 µM
